The values that follow come from patent publication US20160304556A1, “[…] ACTIVE COMPOUNDS AND THEIR METHODS OF USE” (AGIOS PHARMACEUTICALS, INC, priority 2012, published 2016).

Molecules are shown by their SMILES. Where only a bound is given, the exact number is not on record here.

The subject of assay [1] is HT1080 cells. Description: Cellular assay, inhibition of 2-HG production (LC-MS) in HT1080 cells. The assay is classed as cell-based. Conditions: Homo sapiens, HT-1080, 48 hours, LC-MS of media. The procedure:
Cells (HT1080 or U87MG) are grown in T125 flasks in DMEM containing 10% FBS, 1× penicillin/streptomycin and 500 ug/mL G418 (present in U87MG cells only). They are harvested by trypsin and seeded into 96 well white bottom plates at a density of 5000 cell/well in 100 μl/well in DMEM with 10% FBS. No cells are placed in columns 1 and 12. Cells are incubated overnight at 37° C. in 5% CO2. The next day test compounds are made up at 2× the final concentration and 100 μl are added to each cell well. The final concentration of DMSO is 0.2% and the DMSO control wells are plated in row G. The plates are then placed in the incubator for 48 hours. At 48 hours, 100 μl of media is removed from each well and analyzed by LC-MS for 2-HG concentrations. The cell plate is placed back in the incubator for another 24 hours. At 72 hours post compound addition, 10 mL/plate of Promega Cell Titer Glo reagent is thawed and mixed. The cell plate is removed from the incubator and allowed to equilibrate to room temperature. Then 100 μl of Promega Cell Titer Glo reagent is added to each well of media. The cell plate is then placed on an orbital shaker for 10 minutes and then allowed to sit at room temperature for 20 minutes. The plate is then read for luminescence with an integration time of 500 ms.
The IC50 for inhibition of 2-HG production (concentration of test compound to reduce 2HG production by 50% compared to control) in these two cell lines for various compounds of formula I is set forth in Table 2 above.

Assay [2] deals with IDH1 R132C (Homo sapiens, UniProt O75874, R132C). In words: In vitro NADPH depletion assay for IDH1m R132C inhibitors. Format: biochemical. Conditions: enzyme, diaphorase/resazurin readout, read-out: IDH R132C IC50. On the procedure:
(§1) A test compound is prepared as 10 mM stock in DMSO and diluted to 50× final concentration in DMSO, for a 50 μl reaction mixture. IDH enzyme activity converting alpha-ketoglutarate to 2-hydroxyglutaric acid is measured using a NADPH depletion assay. In the assay the remaining cofactor is measured at the end of the reaction with the addition of a catalytic excess of diaphorase and resazurin, to generate a fluorescent signal in proportion to the amount of NADPH remaining. IDH1-R132 homodimer enzyme is diluted to […] in 40 μl of Assay Buffer(150 mM NaCl, 20 mM Tris-Cl pH 7.5, 10 mM MgCl2, 0.05% BSA, 2 mM b-mercaptoethanol); 1 μl of test compound dilution in DMSO is added and the mixture is incubated for 60 minutes at room temperature. The reaction is started with the addition of 10 μl of Substrate Mix ([…], 5 mM alpha-ketoglutarate, in Assay Buffer) and the mixture is incubated for 90 minutes at room temperature. The reaction is terminated with the addition of 25 μl of Detection Buffer (36 μg/ml diaphorase, […], in 1× Assay Buffer), and is incubated for 1 minute before reading on a SpectraMax platereader at Ex544/Em590.
Compounds are assayed for their activity against IDH1 R132C following the same assay as above with the following modifications: Assay Buffer is (50 mM potassium phosphate, pH 6.5; 40 mM sodium carbonate, 5 mM MgCl2, 10% glycerol, 2 mM b-mercaptoethanol, and 0.03% BSA). The concentration of NADPH and alpha-ketoglutarate in the Substrate Buffer is 20 μM and 1 mM, respectively.
(§2) Representative compounds of formula I set forth in Table 1 were tested in this assay and the results are set forth below in Table 3.

Assay [3] has as its target IDH1 R132H (Homo sapiens, UniProt O75874, R132H). Description: In vitro NADPH depletion assay for IDH1m R132H inhibitors. Format: biochemical. The note with it: enzyme, diaphorase/resazurin readout, read-out: IDH R132H IC50. On the procedure:
as §1, §2

Sequence of IDH1 R132C (O75874 whole entry R132C): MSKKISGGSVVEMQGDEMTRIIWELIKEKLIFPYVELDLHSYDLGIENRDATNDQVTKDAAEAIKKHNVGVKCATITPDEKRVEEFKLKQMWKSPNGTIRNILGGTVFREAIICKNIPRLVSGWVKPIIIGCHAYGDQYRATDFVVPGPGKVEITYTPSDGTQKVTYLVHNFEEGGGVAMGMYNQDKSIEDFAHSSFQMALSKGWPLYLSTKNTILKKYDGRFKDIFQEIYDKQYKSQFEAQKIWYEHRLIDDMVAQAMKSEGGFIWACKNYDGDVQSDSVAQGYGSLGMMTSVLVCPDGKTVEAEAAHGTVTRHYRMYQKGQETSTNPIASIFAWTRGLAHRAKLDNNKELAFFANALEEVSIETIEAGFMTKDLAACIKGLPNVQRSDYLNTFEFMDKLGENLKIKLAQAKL
Sequence of IDH1 R132H (O75874 whole entry R132H): as the sequence (O75874 whole entry R132C) above, with C132H counted along it

What is called IC50 is the concentration that inhibits the measured activity by half. `COC(=O)N1[C@@H](C(=O)N(c2cccc(F)c2)[C@H](C(=O)NC2CC(F)(F)C2)c2ccccc2Cl)CCC1(C)C` (single isomer, unassigned) [Compound 114]: the IC50 is 100 to 500 nM in assay [1], no more than 100 nM in assay [2] and 100 to 500 nM in assay [3].

As for `COC(=O)N1[C@H](C(=O)N(c2cccc(F)c2)[C@H](C(=O)NC2CC(F)(F)C2)c2ccccc2Cl)CCC1(C)C` (single isomer, unassigned) [Compound 115], the IC50 in assay [1] was in the range of 500 to 1000 nM; in assay [2], 100 to 500 nM; in assay [3], 100 to 500 nM.

Take `O=C(NC1CC(F)(F)C1)[C@H](c1ccccc1Cl)N(C(=O)[C@@H]1CCN1c1ncccn1)c1cccc(F)c1` (stereo in doubt) [Compound 102]: the IC50 in assay [1] is 100 to 500 nM; in assay [2] it was no more than 100 nM; in assay [3], 100 to 500 nM.

Consider `O=C(NC1CC(F)(F)C1)[C@@H](c1ccccc1Cl)N(C(=O)[C@@H]1CCN1c1ccccn1)c1cccc(F)c1` (stereo in doubt) [Compound 105], for which the values for the IC50 in assay [1], in assay [2] and in assay [3] were 100 to 500 nM, no more than 100 nM and 100 to 500 nM, respectively.

`COC(=O)N1CCOC[C@H]1C(=O)N(c1cccc(F)c1)[C@H](C(=O)NC1CCCCC1)c1ccccc1C` [Compound 23]: the IC50 in assay [1] and in assay [2] was no more than 100 nM in each case.

On to `O=C(NC1CCCCC1)C(c1ccc(F)cc1F)N(C(=O)Cn1cnc(Cl)c1Cl)c1cccc(F)c1` (stereo not shown) [Compound 29], for which the values for the IC50 in assay [1], in assay [2] and in assay [3] were 100 to 500 nM, no more than 100 nM and no more than 100 nM, respectively.

As to `O=C(NC1CC(F)(F)C1)C(c1ccccc1Cl)N(C(=O)Cn1cnc(Cl)c1Cl)c1cccc(F)c1` (stereo not shown) [Compound 35], the figures for the 50% inhibitory concentration (IC50) in assay [1], in assay [2] and in assay [3] were 100 to 500 nM, no more than 100 nM and no more than 100 nM, respectively.

As to `O=C(NC1CCC(F)(F)CC1)C(c1ccccc1Cl)N(C(=O)CNc1ncccc1F)c1cccc(F)c1` (stereo not shown) [Compound 48], the results for the IC50 in assay [1], in assay [2] and in assay [3] were 100 to 500 nM, no more than 100 nM and no more than 100 nM, respectively.

For the compound `COC(=O)N1CCC[C@H]1C(=O)N(c1cccc(F)c1)[C@H](C(=O)NC1CC(F)(F)C1)c1c(Cl)cccc1Cl` [Compound 66], the IC50 in assay [1], in assay [2] and in assay [3] was 100 to 500 nM each time.

For the compound `COC(=O)N1CCN(C(C)=O)C[C@H]1C(=O)N(c1cccc(F)c1)[C@H](C(=O)NC1CC(F)(F)C1)c1ccccc1Cl` [Compound 68, (S)-Methyl 4-acetyl-2-(((S)-1-(2-chlorophenyl)-2-(3,3-difluorocyclobutylamino)-2-oxoethyl) (3-fluorophenyl)carbamoyl)piperazine-1-carboxylate], the IC50 in assay [1] is 100 to 500 nM; in assay [2], no more than 100 nM; in assay [3], no more than 100 nM.

As to `COC(=O)N[C@H](C(=O)N(c1cccc(F)c1)C(C(=O)NC1CC(F)(F)C1)c1ccccc1Cl)[C@@H](C)O` (stereo partly shown) [Compound 99], the IC50 in assay [2] and in assay [3] was 500 to 1000 nM in each case.

On to `O=C(NC1CC(F)(F)C1)[C@H](c1ccccc1Cl)N(C(=O)[C@@H]1CCN1c1ncccn1)c1cccc(F)c1` [Compound 103], for which the concentration for half-maximal inhibition (IC50) in assay [2] fell in the range of 500 to 1000 nM; in assay [3], 1000 to 2000 nM.

With `COC(=O)N1C[C@H](OCCN(C)C)C[C@H]1C(=O)N(c1cccc(F)c1)[C@H](C(=O)NC1CC(F)(F)C1)c1ccccc1Cl` [Compound 104], the results for the IC50 in assay [2] and in assay [3] were 1000 to 2000 nM and 500 to 1000 nM, respectively.

On to `O=C(NC1CC(F)(F)C1)C(c1ccccc1Cl)N(C(=O)c1ccnn1-c1ncccn1)c1cccc(F)c1` (stereo not shown) [Compound 116, N-(1-(2-chlorophenyl)-2-((3,3-difluorocyclobutyl)amino)-2-oxoethyl)-N-(3-fluorophenyl)-1-(pyrimidin-2-yl)-1H-pyrazole-5-carboxamide], for which the IC50 was in the range of 100 to 500 nM in assay [2] and 500 to 1000 nM in assay [3].
